Measured values published in PMC4674085, “Towards Prebiotic Catalytic Amyloids Using High Throughput Screening” (PLoS ONE, 2015).
Ends that are not written are not given here.

Experiments:
[1] = Circular dichroism (CD), secondary structure of aggregates; type: physicochemical; conditions: 50 μM peptide in 10 mM HCl, time-stable spectrum
[2] = Time-dependent 4NPA hydrolysis rate during fibrillization; type: biochemical; conditions: 50 μM peptide, 50 mM HEPES pH 7.3, 0.5 mM ZnCl2, 1 mM 4NPA, derivative of A400
Experimental: For more direct evidence that the amyloid is the catalytically active state, we attempted to measure the catalysis rate during the aggregation of 35 in order to correlate the amyloid formation with an increase in hydrolytic activity. Since the aggregation is too fast to measure a steady-state hydrolysis rate, an instantaneous time-dependent rate of 4NPA hydrolysis was calculated from the derivative of the A400 measurements (Fig 3A). In parallel, an identical sample was monitored at 218 nm for the β-strand-typical ellipticity (Fig 3C). Note that the absorbance of 50 mM HEPES prevented the measurement of a full spectrum (190–260 nm) under the identical aggregation conditions, however when performed with 10 mM HEPES, the spectrum clearly indicates a move towards increasing β-structure upon mixing the peptide with buffer at pH 7.3 (Figure B in S1 File). […]
Fig 3 Parallel kinetics of fibrillization and hydrolysis activity. Kinetics of fibrillization measured by CD (c) matches the appearance of the 4NPA hydrolysis activity (a). a) A stock of 35 at 200 μM in 10 mM HCl was diluted to a final concentration of 50 μM into 50 mM HEPES pH 7.3 with 0.5 mM ZnCl2 and 1 mM 4NPA. After ca. 10 s mixing time, the hydrolysis of 4NPA was recorded every 1 s for 20 min at 400 nm and the first derivative of this signal (the instantaneous rate) is plotted as a function of time. […]

[3] = Plate reader 4NPA hydrolysis kinetics of purified peptide amyloids at pH 7.3; type: biochemical; conditions: 4NPA hydrolysis, pH 7.3 HEPES with zinc(II), 20 μM purified peptide
Experimental: The reaction buffer consisted of the same buffer as the fibrillization buffer without ZnCl2 and with 1.33 mM 4NPA prepared from a 100 mM stock in CH3CN. The samples of the amyloid library were mixed 1:3 with the reaction buffer yielding 40 μM peptide and, when present 250 μM zinc(II). The absorbance measurements were performed in a BMG Pherastar platereader with a 400 nm band-pass filter (10 nm bandwidth) in 96-well Nunclon Delta surface plates or 384-well Greiner Bio-One non-bind black μclear plates.
The kinetics assays performed on the purified peptides were prepared similarly except that the peptide concentration was 20 μM in the reaction. Furthermore, the various substrate concentrations and replicate samples were randomly distributed over the plate to minimize systematic errors. Various 4NPA concentrations (i.e. 0.1 mM, 0.2 mM, 0.4 mM, 0.6 mM, 1.0 mM) were added from a 100 times stock so that the final CH3CN concentration was always 1%. The linear part of the hydrolysis activity was fit with an extinction coefficient of ε = 9700 M^-1cm^-1 and corrected for the background reaction rate of buffer alone (v bg = 5.0 × 10^-6 Ms^-1) to obtain the initial reaction rate v 0. The average of the initial reaction rates at each substrate concentration were then fit to the Michaelis-Menten type kinetics to obtain k cat, K M and k cat/K M always calculated per monomer peptide. The background reaction rate was obtained similarly using 5 replicates.

[4] = Solubility of binary alternating Val/Ser peptides (supernatant vs precipitate, quantitated by total hydrolysis); type: physicochemical; conditions: 200 μM peptide, 50 mM HEPES buffer pH 7.3, fibrillization for 2 days
Text: A high β-aggregation propensity is essential for a combinatorial peptide library in the form of amyloids. To satisfy this requirement we profited from the well-documented observation that in aqueous environments, binary alternating sequences of hydrophobic-hydrophilic residues are prone to oligomerize into amphipathic β-structures. In these structures, the hydrophobic residues are buried at the interface of two β-sheets, leaving the hydrophilic residues on the surface. In keeping with the theme of a prebiotic fold, we wanted to use the shortest peptides that still guaranteed a high percentage of amyloidogenic peptides in the library. […]
For peptides that contain Tyr the concentration of the peptide was measured by diluting a 3–5 mM DMSO stock of the peptide 20-fold into 10 mM HCl and quickly measuring the UV spectrum to minimize the potential for aggregation (ε276 = 1500 M^-1cm^-1). Peptide 36 was quantitated during purification by C18 reversed phase HPLC using a calculated extinction coefficient of ε214 = 13963 M^-1cm^-1. The quantification of the VS peptides in Table 1 and peptide 34 was performed by total hydrolysis in 6 M HCl at 160°C for 2 h. The hydrolyzed samples were analyzed by C18 reversed-phase and the amount of Val or Ile was calculated by comparing the chromatographic peak areas to amino acid samples of known quantity.

Substance | CD spectrum in 10 mM HCl [1] | activity of the monomeric peptide (by extrapolation to t = 0) [2] | k cat/K M ([3]; 0.1-1.0 mM 4NPA, 1% CH3CN, A400, Michaelis-Menten fit, per monomer peptide, triplicate (duplicate for 8, 27, 34, 35)) [M⁻¹ s⁻¹] | K M ([3]; Michaelis-Menten fit) [µM] | k cat ([3]; Michaelis-Menten fit, per monomer peptide) | peptide in solution after centrifugation at 25,000 g [4]
Ac-YVHVHVAV-NH2 [Peptide 35, Ac-YVHVHVAV-CONH2] | mostly random coil | not significantly above the background hydrolysis | 7.38 ± 0.63 | 630 ± 100 | 0.463±0.039 10^-2s^-1 | 
VSVSVSV-NH2 [VSVSVSV-CONH2] |  |  |  |  |  | less than 5%
